Test results reported in US20240109881A1, “Heteroaryl Compounds as Ligand Directed Degraders of IRAK4” (Bristol-Myers Squibb Company, priority 2022, published 2024).

Target: T1, IRAK4 (Homo sapiens, UniProt Q9NWZ3)
T1 construct: endogenous in cells; host or cells: THP-1 cells
T1 sequence (Q9NWZ3 1-460): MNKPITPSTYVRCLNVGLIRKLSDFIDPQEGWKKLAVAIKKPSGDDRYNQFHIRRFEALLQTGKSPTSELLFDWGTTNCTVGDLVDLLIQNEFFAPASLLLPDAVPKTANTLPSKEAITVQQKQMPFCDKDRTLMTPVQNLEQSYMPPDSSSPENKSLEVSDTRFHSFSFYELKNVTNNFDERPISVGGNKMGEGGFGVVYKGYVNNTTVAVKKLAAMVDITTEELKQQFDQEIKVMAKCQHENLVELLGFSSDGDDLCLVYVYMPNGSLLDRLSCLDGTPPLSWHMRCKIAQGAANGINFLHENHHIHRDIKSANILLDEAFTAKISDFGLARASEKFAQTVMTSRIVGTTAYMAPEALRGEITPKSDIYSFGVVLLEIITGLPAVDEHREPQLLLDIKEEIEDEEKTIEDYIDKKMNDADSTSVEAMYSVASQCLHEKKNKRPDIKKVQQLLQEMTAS
Assay: ALE THP1 HTRF (Advanced Lipoxidation End Product THP1 Homogeneous Time Resolved Fluorescence)
Format: cell-based
Conditions: THP1 cells
Procedure: For Homogenous Time Resolved Fluorescence (HTRF) assays, a Cisbio HTRF kit was used, which included: Lysis Buffer #1 4×, Blocking Reagent #3 100×, 20× Antibody 1 (Anti-IRAK4 d2), 20× Antibody 2 (Anti-IRAK4 k), and Detection Buffer.
4× Lysis Buffer was stored at 4° C. For use as 1× Lysis buffer, the 4× solution was diluted with de-ionized water (distilled water, Gibco Cat. #15230279) and 100× Blocking Reagent in a 1:3:0.04 volume ratio.
20× Antibody Solution aliquots were stored in −80° C. and the Detection Buffer was stored in 4° C. For use as a 1× Antibody Solution, the 20× Antibody Solution aliquot was diluted with Detection Buffer in a 1:19 volume ratio.
Cells were lysed at room temperature for 45 min with shaking. A BCA protein assay was performed and normalization was conducted to the desired total protein concentration with 1× lysis buffer. Next, 1× Antibody Solutions were prepared by adding 380 μL Detection Buffer to 20 μL 20× Antibody Solution aliquots and mixing well. 1× Antibody Solutions were combined 1:1 and briefly vortexed. For control wells, 20 μL 1× anti IRAK4-k Antibody Solution was saved. The 384-well plate (ProxiPlate-384 Plus, Perkin Elmer Cat. #6008289) was loaded by adding 4 μL of the mixed Antibody Solution to empty wells using a single channel repeater. Using a multi-channel repeater, 16 μL lysate was added per well, and any bubbles that were formed were popped with 20 μL pipette tips and Kimwipe edges. In column 10, triplicates of each control was prepared. In wells A10, B10, and C10, buffer control was prepared by adding 16 μL Lysis Buffer and 4 μL Detection Buffer. In wells D10, E10, and F10, cryptate control was prepared by adding 16 μL Lysis Buffer, 2 μL Detection Buffer, and 2 μL 1× anti IRAK4-k Antibody Solution. In wells G10, H10, and I10, a negative control was prepared by adding 16 μL Lysis Buffer and 4 μL mixed Antibody Solution. The plate was sealed with a clear seal and covered with an aluminum lid. The plate was spun down at 800 g for 5 min and incubated in the dark at room temperature overnight. The next day, the plate was spun down at 800 g for 5 min. The samples were analyzed by a plate reader (Envision, PerkinElmer) using the Desnor 384 HTRF program.

Row | Compound | ALE THP1 HTRF YMIN | EC50
1 | O=C1CCC(c2ccc(NCC3CCN(C(=O)C4CCC(NC(=O)c5cnc(Nc6ccc7ncsc7c6)cc5NC5CCCC5)CC4)CC3)cc2)C(=O)N1 (stereo not drawn) [P-11] | 47.5% | 0.001 µM
2 | O=C1CCC(N2C(=O)c3ccc(N4CCN(C(=O)C5CCC(NC(=O)c6cnc(Nc7ccc8ncoc8c7)cc6NC6CCCC6)CC5)CC4)cc3C2=O)C(=O)N1 (stereo not drawn) [P-12] | 47.7% | –
3 | C[C@@H]1CN(c2ccc3c(c2)C(=O)N(C2CCC(=O)NC2=O)C3=O)C[C@H](C)N1C(=O)C1CCC(NC(=O)c2cnc(-n3ncc4cc(C#N)cnc43)cc2NC2CCCC2)CC1 (stereo partly drawn) [P-13] | 43.4% | 0.082 µM
4 | N#Cc1cnc2c(cnn2-c2cc(NC3CCCC3)c(C(=O)NC3CCC(C(=O)N4CCC(c5ccc6c(c5)C(=O)N(C5CCC(=O)NC5=O)C6)CC4)CC3)cn2)c1 (stereo not drawn) [P-14] | 24.0% | 0.095 µM
5 | CC(C)Nc1cc(-n2ncc3cc(C#N)cnc32)ncc1C(=O)N[C@H]1CC[C@H](CN2CCN(c3ccc4c(c3)C(=O)N(C3CCC(=O)NC3=O)C4)CC2)CC1 (stereo partly drawn) [P-15] | 31.8% | 0.026 µM
6 | N#Cc1cnc2c(cnn2-c2cc(NC3CCCC3)c(-c3cn([C@H]4CC[C@H](NC(=O)C5CCN(c6ccc7c(c6)C(=O)N(C6CCC(=O)NC6=O)C7)CC5)CC4)nn3)cn2)c1 (stereo partly drawn) [P-16, N-((1r,4r)-4-(4-(6-(5-cyano-1H-pyrazolo[3,4-b]pyridin-1-yl)-4-(cyclopentylamino)pyridin-3-yl)-1H-1,2,3-triazol-1-yl)cyclohexyl)-1-(2-(2,6-dioxopiperidin-3-yl)-3-oxoisoindolin-5-yl)piperidine-4-carboxamide] | 26.9% | 0.016 µM
7 | N#Cc1cnc2c(cnn2-c2cc(NC3CCCC3)c(C(=O)N[C@H]3CC[C@H](CN4CCN(c5ccc6c(c5)C(=O)N(C5CCC(=O)NC5=O)C6)CC4)CC3)cn2)c1 (stereo partly drawn) [P-17] | 24.6% | 0.013 µM
8 | N#Cc1cnc2c(cnn2-c2cc(NC3CCCC3)c(C(=O)N[C@H]3CC[C@H](CN4CCN(c5ccc6c(c5)C(=O)N(C5CCC(=O)NC5=O)C6=O)CC4)CC3)cn2)c1 (stereo partly drawn) [P-18] | 36.9% | 0.037 µM
9 | CN(C(=O)C1CCN(c2ccc3c(c2)C(=O)N(C2CCC(=O)NC2=O)C3)CC1)C1CCC(n2cc(-c3cnc(-n4ncc5cc(C#N)cnc54)cc3NC3CCCC3)nn2)CC1 (stereo not drawn) [P-19] | 38.0% | 0.017 µM
10 | N#Cc1cnc2c(cnn2-c2cc(NC3CCCC3)c(C(=O)NC3CCC(C(=O)Nc4ccc(C(=O)Nc5ccc(C6CCC(=O)NC6=O)cc5)cc4)CC3)cn2)c1 (stereo not drawn) [P-20] | 30.9% | 1.63 µM
11 | C[C@@H]1CN(C(=O)C2CCC(NC(=O)c3cnc(-n4ncc5cc(C#N)cnc54)cc3NC3CCCC3)CC2)CCN1c1ccc2c(c1)C(=O)N(C1CCC(=O)NC1=O)C2=O (stereo partly drawn) [P-21] | 40.3% | 0.022 µM
12 | N#Cc1cnc2c(cnn2-c2cc(NC3CC3)c(C(=O)NC3CCC(C(=O)N4CCN(c5ccc6c(c5)C(=O)N(C5CCC(=O)NC5=O)C6)CC4)CC3)cn2)c1 (stereo not drawn) [P-22] | 20.0% | 1.11 µM
13 | N#Cc1cnc2c(cnn2-c2cc(NC3CCCC3)c(C(=O)NC3CCC(CC(=O)N4CCN(c5ccc(C6CCC(=O)NC6=O)cc5)CC4)CC3)cn2)c1 (stereo not drawn) [P-23] | 34.8% | 0.02 µM
14 | N#Cc1cnc2c(cnn2-c2cc(NC3CCCC3)c(C(=O)N[C@H]3CC[C@H](CN4CCN(c5ccc6c(c5)C(=O)N(C5CCC(=O)NC5=O)C6)CC4)CC3)cn2)c1 (stereo partly drawn) [P-24] | 35.3% | 0.324 µM
15 | CC1(Nc2cc(-n3ncc4cc(C#N)cnc43)ncc2C(=O)NC2CCC(C(=O)N3CCN(c4ccc5c(c4)C(=O)N(C4CCC(=O)NC4=O)C5)CC3)CC2)CC1 (stereo not drawn) [P-25] | 20.1% | 0.012 µM
16 | CC(C)(C)Nc1cc(-n2ncc3cc(C#N)cnc32)ncc1C(=O)NC1CCC(C(=O)N2CCN(c3ccc4c(c3)C(=O)N(C3CCC(=O)NC3=O)C4)CC2)CC1 (stereo not drawn) [P-26] | 22.3% | 0.024 µM
17 | CN(C1CCN(c2ccc3c(c2)C(=O)N(C2CCC(=O)NC2=O)C3)CC1)[C@H]1CC[C@H](n2cc(-c3cnc(-n4ncc5cc(C#N)cnc54)cc3NC3CCCC3)nn2)CC1 (stereo partly drawn) [P-27] | 28.4% | 0.04 µM
18 | N#Cc1cnc2c(cnn2-c2cc(NC3CCCC3)c(C(=O)NC3CCC(C(=O)NC4CCN(c5ccc(C6CCC(=O)NC6=O)cc5)CC4)CC3)cn2)c1 (stereo not drawn) [P-28] | 36.6% | 0.145 µM
19 | N#Cc1cnc2c(cnn2-c2cc(NC3CCCC3)c(C(=O)N[C@H]3CC[C@H](CNC4CCN(c5ccc(C6CCC(=O)NC6=O)cc5)CC4)CC3)cn2)c1 (stereo partly drawn) [P-29] | 14.1% | 0.098 µM
20 | N#Cc1cnc2c(cnn2-c2cc(NC3CCCC3)c(C(=O)NC3CCC(O)(CN4CCN(c5ccc6c(c5)C(=O)N(C5CCC(=O)NC5=O)C6=O)CC4)CC3)cn2)c1 (stereo not drawn) [P-30, 6-(5-cyano-1H-pyrazolo[3,4-b]pyridin-1-yl)-4-(cyclopentylamino)-N-((1s,4s)-4-((4-(2-(2,6-dioxopiperidin-3-yl)-1,3-dioxoisoindolin-5-yl)piperazin-1-yl)methyl)-4-hydroxycyclohexyl)nicotinamide] | 44.1% | 3.32 µM
21 | N#Cc1cnc2c(cnn2-c2cc(NC3CCCC3)c(C(=O)NC3CCC(CN4CCC(C(=O)Nc5ccc(C6CCC(=O)NC6=O)cc5)CC4)CC3)cn2)c1 (stereo not drawn) [P-31] | 18.2% | 0.06 µM
22 | C[C@@H]1CN(c2ccc3c(c2)C(=O)N(C2CCC(=O)NC2=O)C3=O)C[C@H](C)N1CC1CCC(NC(=O)c2cnc(-n3ncc4cc(C#N)cnc43)cc2NC2CCCC2)CC1 (stereo partly drawn) [P-32] | 21.0% | 0.547 µM
23 | N#Cc1cnc2c(cnn2-c2cc(NC3CCCC3)c(-n3cc(C4CCC(NC(=O)C5CCN(c6ccc7c(c6)C(=O)N(C6CCC(=O)NC6=O)C7)CC5)CC4)nn3)cn2)c1 (stereo not drawn) [P-33] | 15.9% | 0.008 µM
24 | N#Cc1cnc2c(cnn2-c2cc(NC3CCCC3)c(-c3cn([C@H]4CC[C@H](CN5CCC(C(=O)Nc6ccc(N7CCC(=O)NC7=O)cc6)CC5)CC4)nn3)cn2)c1 [P-34] | 12.9% | 0.597 µM
25 | N#Cc1cnc2c(cnn2-c2cc(NC3CCCC3)c(C(=O)NC3CCC(CCN4CCN(c5ccc(C6CCC(=O)NC6=O)cc5)CC4)CC3)cn2)c1 (stereo not drawn) [P-35] | 8.4% | 0.041 µM
26 | CC([C@H]1CC[C@H](NC(=O)c2cnc(-n3ncc4cc(C#N)cnc43)cc2NC2CCCC2)CC1)N1CCN(c2ccc3c(c2)C(=O)N(C2CCC(=O)NC2=O)C3)CC1 (stereo partly drawn) [P-36] | 10.7% | 0.047 µM
27 | C[C@H]1CN(c2ccc3c(c2)C(=O)N(C2CCC(=O)NC2=O)C3=O)C[C@H](C)N1CC1CCC(NC(=O)c2cnc(-n3ncc4cc(C#N)cnc43)cc2NC2CCCC2)CC1 (stereo partly drawn) [P-37] | 20.7% | 0.132 µM
28 | CN(c1ccc2c(c1)C(=O)N(C1CCC(=O)NC1=O)C2=O)C1CCN(C[C@H]2CC[C@H](NC(=O)c3cnc(-n4ncc5cc(C#N)cnc54)cc3NC3CCCC3)CC2)CC1 (stereo partly drawn) [P-38] | 24.3% | 0.119 µM
29 | N#Cc1cnc2c(cnn2-c2cc(NC3CCCC3)c(C(=O)NC3CCC(CN4CC5(CCN(c6ccc(C7CCC(=O)NC7=O)cc6)CC5)C4)CC3)cn2)c1 (stereo not drawn) [P-39] | 24.3% | 0.198 µM
